Reference: patent US10632210B2, “Peptidomimetic compounds and antibody-drug conjugates thereof” (Genentech, Inc., priority 2013, dated 2020)

- melting point: 98 °C (dec.)
SMILES: COc1cc2c(cc1OCCCCCC(=O)N1C[C@@H](CCl)c3c1cc(OP(=O)(O)O)c1ccccc31)N(C(=O)OCc1ccc(NC(=O)[C@H](CCCCN)NC(=O)C3(C(=O)NCCCCCN4C(=O)C=CC4=O)CCC3)cc1)C(O)[C@@H]1CCCN1C2=O (stereo partly shown)
